Experimental data as given in patent US20200276181A1, “THIENOISOQUINOLINES AND THEIR DERIVATIVES FOR TARGETING TUBULIN, CH-TOG, AURORA A KINASE, TPX2, CDK5RAP2 AND/OR ASPM” (VALORBEC, SEC, priority 2017, published 2020).

Experiments:
[1] = test system: MCF7, BT549, A549, HCT116, HeLa cells; assay: Viability in cancer vs non-cancer cell lines, summary of Table 3; assay type: cell-based, human
Procedure: To date, 30 variants with different structural modifications have been made. […] In particular, it is shown that C75 causes death in multiple cancer cells with IC50 values in the 100-400 nM range, including breast cancers (MCF7, BT549), lung cancer (A549), colorectal cancer (HCT116) in addition to HeLa cells (cervical cancer).

HCT116 cells [2] = assay: Mitotic arrest after one population doubling time; assay type: cell-based; conditions: HCT116, most responsive
Excerpt: For each condition, 20,000 cells were counted per replicate (N=3). Line graphs (right) were made to better illustrate the relative changes in the cell cycle phases for the different treatments. Bars show standard deviation. The asterisks indicate the first statistically significant change in the G0/G1 and G2/M populations determined by a two-way ANOVA with a post-hoc Tukey's multiple comparisons test using 95% confidence intervals. FIG. 2B) is a line graph showing the percentage of HCT116 (p53−/−) cells, A549 cells, HeLa cells and H1299 cells in mitosis after treatment with various concentrations of C75 for one population doubling time. All of the cell lines show an increase in the proportion of mitotic cells after treatment with 200 nM C75. The bars indicate standard deviation. […]
C75 was also tested for efficacy in different cancer cell lines. […] To further assess the role of C75 in disrupting spindles, HeLa cells were treated with 300 nM C75 for 4 hours and the spindle phenotypes were analyzed in more detail (FIG. 2E). […] To assess the affect of C75 on centrosomes, HeLa cells were treated with C75 or nocodazole (a drug that causes microtubule depolymerization as a control) for a short period of time (5 minutes), then the drugs were removed and the cells were analyzed for spindle phenotypes (schematic in FIG. 2G). […]

HFF1 cells = assay: Spindle morphology, fixed cells stained for tubulin and DAPI; assay type: cell-based; conditions: 300 nM
Procedure: FIG. 1A) is a line graph showing changes in the percentage of viable HFF-1, HeLa, A549 and HCT 116 cells after treatment with a range of C75 concentrations for 3 population doubling times (N=3). […] There were more rounded mitotic cells after C75 treatment in comparison to the control. FIG. 1C) is a line graph showing the percentage of HeLa and HFF1 cells in mitosis after treatment with various concentrations of C75 for 8 hours. The bars indicate standard deviation. FIG. 1D) is a series of images showing cells that were fixed and co-stained for tubulin (microtubules) and DAPI (DNA). Treatment of HeLa cells with 300 nM C75 caused the mitotic spindles to be disorganized, while they were not affected in HFF1 cells. […] The scale bar for the cells is 10 μm. […] FIG. 1F) is a cartoon schematic showing the key features of a metaphase cell.
The images in FIG. 1B) show fields of view of HeLa cells treated with (dimethyl sulfoxide) DMSO or 500 nM of C75. […] Higher concentrations of C75 caused spindle phenotypes in HFF1 cells, but they were quite different in comparison to HeLa cells (FIG. 1D).

HeLa cells = assay: Viability IC50 of C75 in combination with subthreshold tubulin-targeting drug; assay type: cell-based, human
Excerpt: Bars show standard deviation. […] The bars indicate standard deviation. […] The bars indicate standard deviation. […] The scale bar for all cells is 10 μm.
(§1) Bars show standard deviation. […] The scale bar for all cells is 10 μm. In FIG. 4F), bar graphs show changes in the proportion of HCT 116 cells with the different spindle phenotypes as in FIG. 4D (n=2368; N=3). […] Bars indicate standard deviation.

HCT116 cells [3] = assay: Viability IC50 of C75 in combination with subthreshold colchicine; assay type: cell-based; conditions: + 3 nM colchicine
Excerpt: as §1

S2 cells = assay: Spindle phenotypes in live S2 cells expressing GFP-tagged tubulin; assay type: cell-based, Drosophila; conditions: 300 nM
Excerpt: This will permit using Drosophila proteins for binding studies in vitro, and genetics-based tools for further study of the target.

With `COc1ccc(S(=O)(=O)N2Cc3ccccc3-c3sc(Br)cc32)cc1` [Compound C75] as the compound, how does the “efficacy (effect on viability) in cancer cells vs. non-cancer cells” value [1] read?
Its value is “higher efficacy”.

What about the IC50 ([1]; Homo sapiens, MCF7, BT549, A549, HCT116, HeLa, read-out: IC50 values in multiple cancer cells) of the same compound?
Its IC50 is 100 to 400 nM.

And the “concentration at which mitotic cells increase” value (HCT116 cells [2])?
The value was 100 nM.

What about the mitotic spindle morphology (HFF1 cells) of the same compound?
Its mitotic spindle morphology is “not affected”.

What about the “lowering of the IC50 of C75 by subthreshold colchicine” value (HeLa cells; + 3 nM colchicine) of the same compound?
The value was about 2 fold.

What about the “reduction of the IC50 of C75 by subthreshold paclitaxel” value (HeLa cells; + 3 nM paclitaxel) of the same compound?
The value was about 2 fold.

And the “lowering of the IC50 of C75 by subthreshold colchicine” value (HCT116 cells [3])?
Its value is about 2 fold.

What about the “spindle phenotype in Drosophila S2 cells” value (S2 cells) of the same compound?
Its value is “spindle phenotypes similar to what was observed in mammalian cells”.
